Among the data in PubChem BioAssay (NCI) are TGI values, retold here.

Test systems include EKVX NSCLC; HCC-2998 colon; HL-60(TB) leukemia; HT29 colon; KM12 colon; M14 melanoma; MDA-MB-435; NCI-H23 lung; RPMI-8226 leukemia; RXF 393 renal; SF-268 CNS; SF-295 CNS; SK-MEL-2 melanoma; SK-OV-3 ovarian; SN12C renal; SNB-75 CNS; SW-620 colon; TK-10 renal; UACC-257 melanoma; NCI-H460 lung.
Common to all, as to assay: inhibition of tumour cell growth, NCI panel, 48 h

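Dose response: 5 concentrations. Exposure: 48 h. Format: 96-well plates. Endpoint: linear interpolation; highest concentration if not reached. Definition used: TGI = concentration required for complete inhibition of growth.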

In the case of `Cc1ccc(C(=C2Sc3ccccc3S2)C(=C2Sc3ccccc3S2)c2ccc(C)s2)s1`, the TGI in the experiment on EKVX NSCLC, in the experiment with HCC-2998 colon, in the experiment on HL-60(TB) leukemia, with HT29 colon, in the experiment on KM12 colon and with M14 melanoma was over 100 µM throughout. The TGI in the experiment with MDA-MB-435, with NCI-H23 lung, in the experiment with RPMI-8226 leukemia, with RXF 393 renal, in the experiment with SF-268 CNS and with SF-295 CNS was over 100 µM in each case. In addition, the TGI with SK-MEL-2 melanoma, in the experiment with SK-OV-3 ovarian, with SN12C renal, in the experiment on SNB-75 CNS, in the experiment with SW-620 colon and in the experiment on TK-10 renal was over 100 µM throughout. Further, the TGI in the experiment on UACC-257 melanoma was over 100 µM.
With `Cc1cc2c3c(nc4ccccc42)C(=O)c2ccccc2-c3n1`, the TGI is over 100 µM in the experiment on EKVX NSCLC; 53.9 µM in the experiment with HCC-2998 colon; 60.2 µM in the experiment with HT29 colon; 14.5 µM with KM12 colon; 27.3 µM with M14 melanoma; 3.11 µM in the experiment with MDA-MB-435. Moreover, the TGI in the experiment on NCI-H23 lung was 15.9 µM; with RPMI-8226 leukemia, over 100 µM; in the experiment on RXF 393 renal it was over 100 µM; in the experiment with SF-268 CNS it was over 100 µM; in the experiment with SF-295 CNS it was 60.4 µM; in the experiment on SK-MEL-2 melanoma, 47.8 µM. Also, the TGI with SK-OV-3 ovarian was 84 µM; with SN12C renal, over 100 µM; in the experiment on SNB-75 CNS, 29 µM; in the experiment with SW-620 colon it was 35.9 µM; with TK-10 renal, over 100 µM; in the experiment on UACC-257 melanoma, over 100 µM.
Regarding `CC1OC(OC2C(OC(=O)[C@]34CCC(C)(C)C[C@H]3C3=CC[C@@H]5[C@@]6(C)CC[C@H](OC7OC(C(=O)O)C(O)C(O)C7O)C(C)(C)[C@@H]6CC[C@@]5(C)[C@]3(C)C[C@H]4O)OCC(O)C2O)C(O)C(OC2OCC(O)(CO)C2O)C1OC1OCC(O)C(O)C1O` (stereo not given in full), the TGI with EKVX NSCLC amounted to 16.2 µM; in the experiment on HCC-2998 colon it was 3.32 µM; in the experiment with HL-60(TB) leukemia it was 11.4 µM; with HT29 colon, 12.1 µM; in the experiment with KM12 colon it was 16.3 µM; in the experiment with M14 melanoma, 23.3 µM. Further, the TGI in the experiment on MDA-MB-435 worked out at 20.7 µM; with NCI-H23 lung it was 7.18 µM; in the experiment with NCI-H460 lung, 36.5 µM; with RPMI-8226 leukemia it was 26 µM; in the experiment on RXF 393 renal it was 31.5 µM; with SF-268 CNS, 33.7 µM. The TGI came to 26.9 µM in the experiment on SF-295 CNS; 20 µM in the experiment on SK-MEL-2 melanoma; 29.3 µM with SK-OV-3 ovarian; 11 µM in the experiment on SN12C renal; 31.8 µM with SNB-75 CNS; 23.2 µM in the experiment on SW-620 colon. In the experiment on UACC-257 melanoma, this molecule came in with a TGI of 26.6 µM.
`COc1ccc(C2=N/C(=C\c3ccccc3)C(=O)O2)cc1`: the TGI is over 100 µM with EKVX NSCLC; over 100 µM with HCC-2998 colon; 31 µM with HL-60(TB) leukemia; over 100 µM with HT29 colon; over 100 µM in the experiment on KM12 colon; over 100 µM in the experiment on M14 melanoma. Also, the TGI in the experiment on MDA-MB-435, with NCI-H460 lung, in the experiment on RPMI-8226 leukemia, in the experiment on RXF 393 renal, with SF-268 CNS and in the experiment with SF-295 CNS was over 100 µM each time. Moreover, the TGI in the experiment with SK-MEL-2 melanoma, with SK-OV-3 ovarian, with SNB-75 CNS, in the experiment with SW-620 colon, with TK-10 renal and in the experiment with UACC-257 melanoma was over 100 µM each time.
As to `O=C1c2ccccc2-c2c1c(-c1ccc(F)cc1)nc1ccc3ccccc3c21`, the TGI with EKVX NSCLC, in the experiment on HCC-2998 colon, in the experiment on HT29 colon, with KM12 colon, with M14 melanoma and in the experiment with MDA-MB-435 was over 100 µM each time. Also, the TGI with NCI-H23 lung, with NCI-H460 lung, with RPMI-8226 leukemia, with RXF 393 renal, with SF-268 CNS and in the experiment on SF-295 CNS was over 100 µM throughout. The TGI in the experiment with SK-MEL-2 melanoma, with SK-OV-3 ovarian, in the experiment on SN12C renal, with SNB-75 CNS, in the experiment on SW-620 colon and with UACC-257 melanoma was over 100 µM throughout.
For `O=C(CC(C(=O)c1ccsc1)c1ccc2c(c1)OCO2)c1ccccc1` (stereo not given), the TGI with EKVX NSCLC, with HCC-2998 colon, in the experiment on HL-60(TB) leukemia, with HT29 colon, in the experiment with KM12 colon and with M14 melanoma was over 100 µM in each case. Further, the TGI in the experiment with MDA-MB-435 was over 100 µM; in the experiment on NCI-H23 lung, 63.1 µM; in the experiment with NCI-H460 lung it was over 100 µM; in the experiment on RPMI-8226 leukemia it was over 100 µM; in the experiment on RXF 393 renal, over 100 µM; in the experiment with SF-268 CNS, over 100 µM. The TGI in the experiment with SF-295 CNS, with SK-OV-3 ovarian, in the experiment on SN12C renal, with SNB-75 CNS, in the experiment on SW-620 colon and in the experiment on TK-10 renal was over 100 µM throughout. The TGI in the experiment with UACC-257 melanoma is over 100 µM.
With `Cc1ccc2c(c1)C(=O)C1(Cc3ccccc3C1=O)C2` (stereo not given), the TGI in the experiment on EKVX NSCLC, in the experiment with HCC-2998 colon, in the experiment with HL-60(TB) leukemia, in the experiment on HT29 colon, in the experiment on KM12 colon and with M14 melanoma was over 100 µM throughout. Moreover, the TGI in the experiment on MDA-MB-435, in the experiment with NCI-H23 lung, in the experiment with NCI-H460 lung, in the experiment with RPMI-8226 leukemia, in the experiment on RXF 393 renal and in the experiment on SF-268 CNS was over 100 µM throughout. The TGI in the experiment with SF-295 CNS, in the experiment on SK-OV-3 ovarian, with SN12C renal, in the experiment with SNB-75 CNS, with SW-620 colon and in the experiment with TK-10 renal was over 100 µM each time. Also, the TGI in the experiment with UACC-257 melanoma was over 100 µM.
